Assay results reported in patent publication US20220087987A1, “A METHOD FOR TREATING SWI/SNF COMPLEX-DEFICIENT CANCERS COMPRISING GLUTATHIONE (GSH) METABOLIC PATHWAY INHIBITOR” (National Cancer Center, priority 2018, published 2022).
Where a name gives a salt, the structure may show the parent alone. Read-outs that look alike come from different tables or passages of the source.

Assays:
[1] = Drug library screen, cell viability (CellTiter-Glo); format: cell-based, human; conditions: human
Procedure, shortened: (§1)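 ARID1A-WT and ARID1A-KO HCT116 cells screened against the library; viability read after 5 days by CellTiter-Glo luminescence, expressed relative to DMSO-treated cells. Hits: KO viability below 40% with WT viability above 80%.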

[2] = system: ARID1A-KO HCT116 cells; assay: as above; format: cell-based, human; conditions: Homo sapiens, HCT-116, 120 h, read-out: Cell viability, KO
Procedure, shortened: as §1

[3] = HCT116 ARID1A-WT, 10 μM for 5 days, relative to cells treated with solvent (DMSO), read-out: Cell viability, WT
[4] = HCT116 ARID1A-KO, 10 μM for 5 days, relative to cells treated with solvent (DMSO)

Row | Compound | viability at 5 days, 10 μM [1, 3] [%] | viability at 10 µM [2, 4] [%] | further results
1 | CC(=O)N[C@@H](CS)C(=O)O [N-Acetyl-L-cysteine] | 186 | 139 | –
2 | O=C(O)c1ccccc1Nc1ccccc1 [N-phenylanthranilic acid] | 101 | 118 | –
3 | CS(=O)(=O)Nc1ccc([N+](=O)[O-])cc1OC1CCCCC1 [NS-398] | 177 | – | viability at 10 µM [2]: 142%
4 | CCn1cc(C(=O)O)c(=O)c2ccc(C)nc21 [Nalidixic acid] | 102 | 97.5 | –
5 | CO[C@@H]1C[C@@H](C[C@H]2CC[C@H](C)[C@H]([C@@H](C)C(=O)O)O2)O[C@]2(O[C@](C)([C@H]3CC[C@@](C)([C@@H]4O[C@@H]([C@H]5O[C@@](O)(CO)[C@H](C)C[C@@H]5C)C[C@@H]4C)O3)C[C@H]2C)[C@@H]1C [Nigericin] | – | – | viability at 5 days, 10 μM [1]: 3.47%; viability at 10 µM [2]: 4.01%
6 | COC(=O)Nc1nc2ccc(C(=O)c3cccs3)cc2[nH]1 [Nocodazole] | 6.51 | – | viability at 10 µM [2]: 7.15%
7 | CC(Cc1ccc(O)c(O)c1)C(C)Cc1ccc(O)c(O)c1 (centres unmarked) [Nordihydroguaiaretic acid (NDGA), Nordihydroguaiaretic acid] | 101 | 112 | –
8 | C[C@]1(O)C[C@@H](c2nc(-c3ccc4ccc(-c5ccccc5)nc4c3)c3c(N)nccn32)C1 [OSI-906] | 59.1 | 79.1 | –
9 | NCC(=O)Nc1ccc(-n2nc(C(F)(F)F)cc2-c2ccc3c(ccc4ccccc43)c2)cc1 [OSU-03012] | 91.9 | 105 | –
10 | O=C(c1cc(Cc2n[nH]c(=O)c3ccccc23)ccc1F)N1CCN(C(=O)C2CC2)CC1 [Olaparib] | 20.9 | 19.5 | –
11 | CC[C@H]1/C=C/C=C/C[C@@H](C)[C@H](O)[C@@](C)(O)C(=O)[C@@H](C)[C@H](O)[C@@H](C)C(=O)[C@@H](C)[C@H](O)[C@@H](C)/C=C/C(=O)O[C@@H]2[C@H](C)[C@H](CC1)O[C@]1(CC[C@H](C)[C@H](C[C@@H](C)O)O1)[C@H]2C [Oligomycin] | 13.6 | 21.7 | –
12 | Cn1cnc2c(NCc3ccccc3)nc(NCCO)nc21 [Olomoucine] | 173 | – | viability at 10 µM [2]: 122%
13 | C[C@@H]1O[C@@H](O[C@H]2C[C@@H](O)[C@]3(CO)[C@H]4[C@H](O)C[C@]5(C)[C@@H](C6=CC(=O)OC6)CC[C@]5(O)[C@@H]4CC[C@]3(O)C2)[C@H](O)[C@H](O)[C@H]1O [Ouabain] | – | 5.12 | viability [1, 3]: 4.81%
14 | CC(=O)O[C@H]1C(=O)[C@@]2(C)[C@H]([C@H](OC(=O)c3ccccc3)[C@]3(O)C[C@H](OC(=O)[C@H](O)[C@@H](NC(=O)c4ccccc4)c4ccccc4)C(C)=C1C3(C)C)[C@]1(OC(C)=O)CO[C@@H]1C[C@@H]2O [Paclitaxel] | 4.91 | 6.42 | –
15 | NNCCc1ccccc1 [Phenelzine] | 101 | 119 | –
16 | C[C@@H]1C[C@H]2O[C@@H]2/C=C\C=C\C(=O)Cc2c(Cl)c(O)cc(O)c2C(=O)O1 [Radicicol] | 7.12 | 5.65 | –
17 | CO[C@H]1C[C@@H]2CC[C@@H](C)[C@@](O)(O2)C(=O)C(=O)N2CCCC[C@H]2C(=O)O[C@H]([C@H](C)C[C@@H]2CC[C@@H](O)[C@H](OC)C2)CC(=O)[C@H](C)/C=C(\C)[C@@H](O)[C@@H](OC)C(=O)[C@H](C)C[C@H](C)/C=C/C=C/C=C/1C [Rapamycin] | 169 | 125 | –
18 | C=C(C)[C@H]1Cc2c(ccc3c2O[C@@H]2COc4cc(OC)c(OC)cc4[C@@H]2C3=O)O1 [Rotenone] | – | 6.99 | viability [1, 3]: 5.52%
19 | N#CC[C@H](C1CCCC1)n1cc(-c2ncnc3[nH]ccc23)cn1 [Ruxolitinib] | 58.1 | 86.1 | –
20 | Oc1c2ccccc2c2c3c(cccc13)N=N2 [SP600125] | 172 | 105 | –
21 | C[n+]1cc2c3c(ccc2c2ccc4cc5c(cc4c21)OCO5)OCO3 [Sanguinarine] | – | 2.09 | viability [1, 3]: 1.83%
22 | O=C(CCCCCN1C(=O)c2cccc3cccc(c23)C1=O)NO [Scriptaid] | 6.95 | 5.74 | –
23 | O=C([O-])c1ccccc1O.[Na+] [Sodium salicylate] | – | – | viability [1]: 177%; viability at 10 µM [2]: 125%

Row | Compound | viability at 5 days, 10 μM [1, 3] [%] | viability at 10 µM [2, 4] [%] | further results
24 | CN[C@@H]1C[C@H]2O[C@@](C)([C@@H]1OC)n1c3ccccc3c3c4c(c5c6ccccc6n2c5c31)C(=O)NC4 [Staurosporine] | – | 4.14 | viability [1, 3]: 5.22%
25 | CSc1ccc(/C=C2/C(C)=C(CC(=O)O)c3cc(F)ccc32)cc1 [Sulindac sulfide] | 195 | 140 | –
26 | O[C@H]1[C@H]2[C@H](O)CCCN2C[C@H]1O [Swainsonine] | – | 110 | viability [1, 3]: 115%
27 | CC1=C(O)C(=O)[C@@H]2O[C@@H]2C1=O [Terreic acid] | – | 90.5 | viability [1, 3]: 88.9%
28 | C/C=C(/C)C(=O)O[C@H]1C(C)=C2[C@H]([C@@H]1OC(=O)CCCCCCC)[C@@](C)(OC(C)=O)C[C@H](OC(=O)CCC)[C@@]1(O)[C@H]2OC(=O)[C@@]1(C)O [Thapsigargin] | – | – | viability at 5 days, 10 μM [1]: 2.63%; viability at 10 µM [2]: 2.88%
29 | Cn1c(=O)c2[nH]cnc2n(C)c1=O [Theophylline] | 203 | 140 | –
30 | Cc1c(C)c2c(c(C)c1O)CCC(C)(COc1ccc(CC3SC(=O)NC3=O)cc1)O2 (centres unmarked) [Troglitazone] | 101 | 94.7 | –
31 | N#CC(=C(/N)Sc1ccccc1N)/C(C#N)=C(\N)Sc1ccccc1N [U0126] | – | – | viability [1]: 80.5%; viability at 10 µM [2]: 68.3%
32 | COc1cc2c(NC3CCN(C(C)C)CC3)nc(C3CCCCC3)nc2cc1OCCCN1CCCC1 [UNC0638] | 2.6 | 3.8 | –
33 | CC(C)[C@@H]1NC(=O)[C@H](C)OC(=O)[C@@H](C(C)C)NC(=O)[C@@H](C(C)C)OC(=O)[C@H](C(C)C)NC(=O)[C@H](C)OC(=O)[C@@H](C(C)C)NC(=O)[C@@H](C(C)C)OC(=O)[C@H](C(C)C)NC(=O)[C@H](C)OC(=O)[C@@H](C(C)C)NC(=O)[C@@H](C(C)C)OC1=O [Valinomycin] | – | 4.17 | viability [1, 3]: 3.65%
34 | COc1cc2c(Nc3ccc(Br)cc3F)ncnc2cc1OCC1CCN(C)CC1 [Vandetanib] | 14.1 | 28.9 | –
35 | CCCS(=O)(=O)Nc1ccc(F)c(C(=O)c2c[nH]c3ncc(-c4ccc(Cl)cc4)cc23)c1F [Vemurafenib] | 103 | 108 | –
36 | CC[C@]1(O)C[C@@H]2CN(CCc3c([nH]c4ccccc34)[C@@](C(=O)OC)(c3cc4c(cc3OC)N(C)[C@H]3[C@@](O)(C(=O)OC)[C@H](OC(C)=O)[C@]5(CC)C=CCN6CC[C@]43[C@@H]65)C2)C1 [Vinblastine sulfate] | 2.73 | 4.49 | –
37 | CS(=O)(=O)c1ccc(C(=O)Nc2ccc(Cl)c(-c3ccccn3)c2)c(Cl)c1 [Vismodegib] | 88.7 | 109 | –
38 | C[C@H](NC(=O)/C(C#N)=C/c1cccc(Br)n1)c1ccccc1 [WP1066] | 15.3 | 20 | –
39 | COC[C@H]1OC(=O)c2coc3c2[C@@]1(C)C1=C(C3=O)[C@@H]2CCC(=O)[C@@]2(C)C[C@H]1OC(C)=O [Wortmannin] | 181 | 116 | –
40 | Oc1nc(-c2ccc(C(F)(F)F)cc2)nc2c1CSCC2 [XAV939] | 87 | 111 | –
41 | COc1cc(O)c(CC=C(C)C)c(O)c1C(=O)/C=C/c1ccc(O)cc1 [Xanthohumol] | 104 | 112 | –
42 | C[C@@H](N)[C@H]1CC[C@H](C(=O)Nc2ccncc2)CC1 [Y27632] | 160 | – | viability at 10 µM [2]: 98.6%
43 | COCCn1c2c([n+](Cc3cnccn3)c1C)C(=O)c1ccccc1C2=O [YM155] | 2.67 | 3.24 | –
44 | CCCOc1ccccc1-c1nc2nn[nH]c2c(=O)[nH]1 [Zaprinast] | 93.5 | 82.6 | –
45 | CC(C)C[C@H](NC(=O)[C@H](Cc1ccccc1)NC(=O)c1cnccn1)B(O)O [bortezomib] | 3.06 | 5.81 | –
46 | CN(C)CCCN1c2ccccc2Sc2ccc(Cl)cc21 [chlorpromazine hydrochloride] | 7.83 | 15.6 | –
